Source: PubChem BioAssay (NCI)
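Assay format: 96-well plates, 48-hour exposure. GI50: concentration for 50% inhibition of growth. TGI denotes the concentration required for complete inhibition of growth.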

How the values were obtained:
Assay in all cases: NCI-60 cell line screen, 48 h
CCRF-CEM leukemia = test system: CCRF-CEM leukemia
UACC-62 melanoma = test system: UACC-62 melanoma
BT-549 breast = test system: BT-549 breast
OVCAR-8 ovarian = test system: OVCAR-8 ovarian
HOP-62 NSCLC = test system: HOP-62 NSCLC
TK-10 renal = test system: TK-10 renal
ACHN renal = test system: ACHN renal
HT29 colon = test system: HT29 colon
SN12C renal = test system: SN12C renal
MOLT-4 leukemia = test system: MOLT-4 leukemia
MDA-MB-231 breast = test system: MDA-MB-231 breast
M14 melanoma = test system: M14 melanoma
NCI-H23 lung = test system: NCI-H23 lung
MCF7 breast = test system: MCF7 breast
EKVX NSCLC = test system: EKVX NSCLC
SF-268 CNS = test system: SF-268 CNS
SK-MEL-2 melanoma = test system: SK-MEL-2 melanoma
NCI/ADR-RES ovarian = test system: NCI/ADR-RES ovarian
PC-3 prostate = test system: PC-3 prostate
U251 CNS = test system: U251 CNS
MDA-MB-435 = test system: MDA-MB-435
T-47D breast = test system: T-47D breast
OVCAR-3 ovarian = test system: OVCAR-3 ovarian
OVCAR-5 ovarian = test system: OVCAR-5 ovarian
COLO 205 colon = test system: COLO 205 colon
UACC-257 melanoma = test system: UACC-257 melanoma
UO-31 renal = test system: UO-31 renal
A549 NSCLC = test system: A549 NSCLC
SK-OV-3 ovarian = test system: SK-OV-3 ovarian
SF-539 CNS = test system: SF-539 CNS
SR leukemia = test system: SR leukemia
SNB-19 CNS = test system: SNB-19 CNS
A498 renal = test system: A498 renal
HS 578T breast = test system: HS 578T breast
HCT-116 colon = test system: HCT-116 colon
NCI-H226 lung = test system: NCI-H226 lung
SK-MEL-5 melanoma = test system: SK-MEL-5 melanoma
KM12 colon = test system: KM12 colon
RXF 393 renal = test system: RXF 393 renal
K-562 leukemia = test system: K-562 leukemia
NCI-H522 lung = test system: NCI-H522 lung
CAKI-1 renal = test system: CAKI-1 renal
LOX IMVI melanoma = test system: LOX IMVI melanoma
DU-145 prostate = test system: DU-145 prostate
NCI-H460 lung = test system: NCI-H460 lung
HCT-15 colon = test system: HCT-15 colon
SF-295 CNS = test system: SF-295 CNS
IGROV1 ovarian = test system: IGROV1 ovarian
SK-MEL-28 melanoma = test system: SK-MEL-28 melanoma
SW-620 colon = test system: SW-620 colon
SNB-75 CNS = test system: SNB-75 CNS
HOP-92 NSCLC = test system: HOP-92 NSCLC
RPMI-8226 leukemia = test system: RPMI-8226 leukemia
HCC-2998 colon = test system: HCC-2998 colon
OVCAR-4 ovarian = test system: OVCAR-4 ovarian
786-0 renal = test system: 786-0 renal

Question: How did the GI50 (CCRF-CEM leukemia) turn out when `O=c1[nH]nc(-c2nn(-c3ccc(Cl)cc3)cc2O)o1` was run?
Answer: 303 nM

Question: What about the TGI (CCRF-CEM leukemia) of the same compound?
Answer: > 62100 nM

Question: What about the GI50 (UACC-62 melanoma) of the same compound?
Answer: 166 nM

Question: What about the TGI (UACC-62 melanoma) of the same compound?
Answer: 2820 nM

Question: And the GI50 (BT-549 breast)?
Answer: 19.1 nM

Question: What about the TGI (BT-549 breast) of the same compound?
Answer: 219 nM

Question: What about the GI50 (OVCAR-8 ovarian) of the same compound?
Answer: 317 nM

Question: What about the TGI (OVCAR-8 ovarian) of the same compound?
Answer: > 100000 nM

Question: And the GI50 (HOP-62 NSCLC)?
Answer: 99 nM

Question: And the TGI (HOP-62 NSCLC)?
Answer: 36000 nM

Question: And the GI50 (TK-10 renal)?
Answer: 37.6 nM

Question: And the TGI (TK-10 renal)?
Answer: 276 nM

Question: What about the GI50 (ACHN renal) of the same compound?
Answer: 142 nM

Question: What about the TGI (ACHN renal) of the same compound?
Answer: > 100000 nM

Question: And the GI50 (HT29 colon)?
Answer: 2020 nM

Question: What about the TGI (HT29 colon) of the same compound?
Answer: > 100000 nM

Question: What about the GI50 (SN12C renal) of the same compound?
Answer: 119 nM

Question: What about the TGI (SN12C renal) of the same compound?
Answer: 5770 nM

Question: And the GI50 (MOLT-4 leukemia)?
Answer: 53.7 nM

Question: What about the TGI (MOLT-4 leukemia) of the same compound?
Answer: 944 nM

Question: And the GI50 (MDA-MB-231 breast)?
Answer: 4560 nM

Question: And the TGI (MDA-MB-231 breast)?
Answer: > 50400 nM

Question: And the GI50 (M14 melanoma)?
Answer: 132 nM

Question: And the TGI (M14 melanoma)?
Answer: 13000 nM

Question: And the GI50 (NCI-H23 lung)?
Answer: 108 nM

Question: What about the TGI (NCI-H23 lung) of the same compound?
Answer: 673 nM

Question: And the GI50 (MCF7 breast)?
Answer: 340 nM

Question: And the TGI (MCF7 breast)?
Answer: > 100000 nM

Question: What about the GI50 (EKVX NSCLC) of the same compound?
Answer: 92.5 nM

Question: And the TGI (EKVX NSCLC)?
Answer: 904 nM

Question: And the GI50 (SF-268 CNS)?
Answer: 117 nM

Question: And the TGI (SF-268 CNS)?
Answer: > 100000 nM

Question: And the GI50 (SK-MEL-2 melanoma)?
Answer: 536 nM

Question: And the TGI (SK-MEL-2 melanoma)?
Answer: 46200 nM

Question: What about the GI50 (NCI/ADR-RES ovarian) of the same compound?
Answer: 121 nM

Question: And the TGI (NCI/ADR-RES ovarian)?
Answer: 2750 nM

Question: And the GI50 (PC-3 prostate)?
Answer: 401 nM

Question: And the TGI (PC-3 prostate)?
Answer: > 100000 nM

Question: And the GI50 (U251 CNS)?
Answer: 25 nM

Question: And the TGI (U251 CNS)?
Answer: > 100000 nM

Question: What about the GI50 (MDA-MB-435) of the same compound?
Answer: 20.5 nM

Question: And the GI50 (T-47D breast)?
Answer: 221 nM

Question: What about the TGI (T-47D breast) of the same compound?
Answer: > 100000 nM

Question: What about the GI50 (OVCAR-3 ovarian) of the same compound?
Answer: 472 nM

Question: What about the TGI (OVCAR-3 ovarian) of the same compound?
Answer: 12500 nM

Question: What about the GI50 (OVCAR-5 ovarian) of the same compound?
Answer: 499 nM

Question: What about the TGI (OVCAR-5 ovarian) of the same compound?
Answer: > 100000 nM

Question: And the GI50 (COLO 205 colon)?
Answer: 3250 nM

Question: What about the TGI (COLO 205 colon) of the same compound?
Answer: > 100000 nM

Question: And the GI50 (UACC-257 melanoma)?
Answer: 610 nM

Question: And the TGI (UACC-257 melanoma)?
Answer: > 100000 nM

Question: What about the GI50 (UO-31 renal) of the same compound?
Answer: 331 nM

Question: What about the TGI (UO-31 renal) of the same compound?
Answer: > 34300 nM

Question: And the GI50 (A549 NSCLC)?
Answer: 91.3 nM

Question: And the TGI (A549 NSCLC)?
Answer: > 100000 nM

Question: What about the GI50 (SK-OV-3 ovarian) of the same compound?
Answer: 385 nM

Question: What about the TGI (SK-OV-3 ovarian) of the same compound?
Answer: > 100000 nM

Question: And the GI50 (SF-539 CNS)?
Answer: 74.1 nM

Question: And the TGI (SF-539 CNS)?
Answer: 2240 nM

Question: And the GI50 (SR leukemia)?
Answer: 33.4 nM

Question: What about the TGI (SR leukemia) of the same compound?
Answer: 266 nM

Question: What about the GI50 (SNB-19 CNS) of the same compound?
Answer: 187 nM

Question: And the TGI (SNB-19 CNS)?
Answer: > 100000 nM

Question: And the GI50 (A498 renal)?
Answer: 87 nM

Question: What about the TGI (A498 renal) of the same compound?
Answer: 464 nM

Question: What about the GI50 (HS 578T breast) of the same compound?
Answer: 61.9 nM

Question: And the TGI (HS 578T breast)?
Answer: 3160 nM

Question: And the GI50 (HCT-116 colon)?
Answer: 71.8 nM

Question: What about the TGI (HCT-116 colon) of the same compound?
Answer: 927 nM

Question: What about the GI50 (NCI-H226 lung) of the same compound?
Answer: 133 nM

Question: What about the TGI (NCI-H226 lung) of the same compound?
Answer: 3730 nM

Question: What about the GI50 (SK-MEL-5 melanoma) of the same compound?
Answer: 201 nM

Question: And the TGI (SK-MEL-5 melanoma)?
Answer: 1440 nM

Question: What about the GI50 (KM12 colon) of the same compound?
Answer: 134 nM

Question: What about the GI50 (RXF 393 renal) of the same compound?
Answer: 741 nM

Question: And the TGI (RXF 393 renal)?
Answer: > 72400 nM

Question: What about the GI50 (K-562 leukemia) of the same compound?
Answer: 46 nM

Question: What about the GI50 (NCI-H522 lung) of the same compound?
Answer: 696 nM

Question: And the TGI (NCI-H522 lung)?
Answer: > 100000 nM

Question: And the GI50 (CAKI-1 renal)?
Answer: 156 nM

Question: What about the TGI (CAKI-1 renal) of the same compound?
Answer: 13000 nM

Question: And the GI50 (LOX IMVI melanoma)?
Answer: 194 nM

Question: What about the TGI (LOX IMVI melanoma) of the same compound?
Answer: > 43300 nM

Question: What about the GI50 (DU-145 prostate) of the same compound?
Answer: 56.2 nM

Question: And the TGI (DU-145 prostate)?
Answer: 1450 nM

Question: What about the GI50 (NCI-H460 lung) of the same compound?
Answer: 42.9 nM

Question: What about the TGI (NCI-H460 lung) of the same compound?
Answer: > 100000 nM

Question: And the GI50 (HCT-15 colon)?
Answer: 152 nM

Question: What about the TGI (HCT-15 colon) of the same compound?
Answer: > 100000 nM

Question: And the GI50 (SF-295 CNS)?
Answer: 51.8 nM

Question: And the TGI (SF-295 CNS)?
Answer: > 100000 nM

Question: What about the GI50 (IGROV1 ovarian) of the same compound?
Answer: 117 nM

Question: And the TGI (IGROV1 ovarian)?
Answer: > 100000 nM

Question: What about the GI50 (SK-MEL-28 melanoma) of the same compound?
Answer: 25100 nM

Question: What about the TGI (SK-MEL-28 melanoma) of the same compound?
Answer: > 100000 nM

Question: And the GI50 (SW-620 colon)?
Answer: 470 nM

Question: And the TGI (SW-620 colon)?
Answer: > 100000 nM

Question: And the GI50 (SNB-75 CNS)?
Answer: 227 nM

Question: What about the TGI (SNB-75 CNS) of the same compound?
Answer: > 100000 nM

Question: What about the GI50 (HOP-92 NSCLC) of the same compound?
Answer: 280 nM

Question: What about the GI50 (RPMI-8226 leukemia) of the same compound?
Answer: 172 nM

Question: And the GI50 (HCC-2998 colon)?
Answer: 238 nM

Question: What about the TGI (HCC-2998 colon) of the same compound?
Answer: 3500 nM

Question: And the TGI (OVCAR-4 ovarian)?
Answer: > 100000 nM

Question: What about the GI50 (786-0 renal) of the same compound?
Answer: 519 nM

Question: And the TGI (786-0 renal)?
Answer: 36500 nM
